Reference: patent US20100240709A1, “Sulfoximine Derivatives as p38 MAP Kinase Inhibitors” (priority 2005, published 2010)

molecular target: p38 MAP kinase (Homo sapiens, UniProt Q16539); assay: p-38 MAPK Enzyme assay (in vitro ELISA, ATF-2 substrate); type: biochemical; conditions: ELISA detection of phosphorylated ATF-2
From the text: The compounds were screened using an in vitro ELISA assay for p38 MAP kinase activity. Activated p38 MAP kinase during the course of its biological function phosphorylates its substrates. The assay was based on the detection of a phosphorylated p38 MAP kinase substrate using ATF-2 as the biological substrate. More the activity of the p38 MAP kinase inhibitor in the reaction mixture less will be the amount of active p38 MAP kinase available to phosphorylate ATF-2. So, lower OD value will indicate the higher inhibition of p38 MAP kinase by the specific p38 MAP kinase inhibitor. The quantitation of phosphorylated ATF-2 at varying concentrations of p38 MAP kinase inhibitor was used to determine the IC50 by fitting the results to a logistic dose-response program (Graphpad Prism, CA). IC50 was defined as the concentration of compound required to achieve 50% inhibition of p38 MAP kinase activity.

Sequence of p38 MAP kinase (Q16539 whole entry): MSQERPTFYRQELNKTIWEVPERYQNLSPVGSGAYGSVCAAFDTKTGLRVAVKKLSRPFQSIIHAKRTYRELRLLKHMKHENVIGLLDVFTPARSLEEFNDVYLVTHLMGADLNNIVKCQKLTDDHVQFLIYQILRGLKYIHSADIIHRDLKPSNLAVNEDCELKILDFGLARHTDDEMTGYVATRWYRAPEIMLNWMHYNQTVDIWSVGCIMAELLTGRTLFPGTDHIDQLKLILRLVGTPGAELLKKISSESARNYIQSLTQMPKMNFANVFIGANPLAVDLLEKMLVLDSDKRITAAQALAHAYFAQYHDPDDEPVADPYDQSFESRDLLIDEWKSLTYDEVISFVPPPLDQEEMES

In order of falling IC50:
1. CS(=O)(=Nc1cc(-c2scnc2-c2cccc(F)c2)ccn1)c1ccccc1 (stereo not drawn) [Example 71]  25.5 µM
2. CCc1nc(-c2cccc(C)c2)c(-c2ccnc(N=S3(=O)CCCCC3)c2)s1 [Example 18, 1-Imino-N-[4-(2-ethyl-4-(3-methylphenyl)-1,3-thiazol-5-yl)-pyridine-2-yl]-tetrahydro-2H-thiopyran-1-oxide]  15 µM
3. CCc1nc(-c2ccc(F)cc2)c(-c2ccnc(N=S(=O)(c3ccccc3)C(C)C)c2)s1 (stereo not drawn) [Example 35, S-Isopropyl-S-phenyl-N-{-4-[2-ethyl-4-(4-fluoro-phenyl)-thiazol-5-yl]-pyridin-2-yl}-sulfoximine]  14.6 µM
4. O=S(=Nc1cc(-c2scnc2-c2ccc(F)cc2)ccn1)(c1ccccc1)C1CCCC1 (stereo not drawn) [Example 75]  12.6 µM
5. CCc1nc(-c2cccc(C)c2)c(-c2ccnc(N=S(C)(=O)c3cccc(C)c3)c2)s1 (stereo not drawn) [Example 10, S-(3-Methylphenyl)-S-methyl-N-[4-(2-ethyl-4-m-tolyl-thiazol-5-yl)-pyridin-2-yl]-sulfoximine]  11.1 µM
6. CCc1nc(-c2cccc(C)c2)c(-c2ccnc(N=S(C)(=O)c3ccc(F)c(Cl)c3)c2)s1 (stereo not drawn) [Example 17, S-Methyl-S-(3-chloro-4-fluoro-phenyl)-N-[4-(2-ethyl-4-(3-methylphenyl)-1,3-thiazol-5-yl)-pyridine-2-yl]-sulfoximine]  10 µM
7. CCc1nc(-c2ccccc2)c(-c2ccnc(N=S(=O)(c3ccccc3)c3ccccc3)c2)s1 [Example 32, S,S-diphenyl-N-[4-(2-ethyl-4-phenyl-thiazol-5-yl)-pyridin-2-yl]-sulfoximine]  10 µM
8. O=S(=Nc1cc(-c2scnc2-c2cccc(F)c2)ccn1)(c1ccccc1)C1CCCC1 (stereo not drawn) [Example 70]  8.2 µM
9. CCc1nc(-c2ccc(F)cc2)c(-c2ccnc(N=S(=O)(c3ccccc3)C3CCCC3)c2)s1 (stereo not drawn) [Example 42, S-Cyclopentyl-S-Phenyl-N-[4-(2-ethyl-4-(4-fluorophenyl)-1,3-thiazol-5-yl)-pyridine-2-yl]-sulfoximine]  7.1 µM
10. CCc1nc(-c2cccc(C)c2)c(-c2ccnc(N=S(C)(=O)c3ccccc3C)c2)s1 (stereo not drawn) [Example 12, S-(2-Methylphenyl)-S-methyl-N-[4-(2-ethyl-4-m-tolyl-thiazol-5-yl)-pyridin-2-yl]-sulfoximine]  6.95 µM
11. CCc1nc(-c2ccc(F)c(F)c2)c(-c2ccnc(N=S(C)(=O)c3ccc(F)cc3)c2)s1 (stereo not drawn) [Example 59, S-Methyl-S-(4-fluorophenyl)-N-{-4-[2-ethyl-4-(3,4-difluorophenyl)-thiazol-5-yl]pyridin-2-yl}-sulfoximine]  6.6 µM
12. CCc1nc(-c2cccc(C)c2)c(-c2ccnc(N=S(=O)(CC)c3ccccc3)c2)s1 (stereo not drawn) [Example 14, S-Ethyl-S-Phenyl-N-[4-(2-ethyl-4-(3-methylphenyl)-1,3-thiazol-5-yl)-pyridine-2-yl]-sulfoximine]  6.2 µM
13. CCc1nc(-c2ccc(F)cc2)c(-c2ccnc(N=S(=O)(c3ccccc3)C(C)C)c2)s1 (single isomer, unassigned; (+)) [Example 37, (+)-S-Isopropyl-S-phenyl-N-{4-[2-ethyl-4-(4-fluoro-phenyl)-thiazol-5-yl]-pyridin-2-yl}-sulfoximine]  5.93 µM
14. CCc1nc(-c2cccc(C)c2)c(-c2ccnc(N=S(C)(=O)c3cccc(F)c3)c2)s1 (stereo not drawn) [Example 9, S-(3-Fluorophenyl)-S-methyl-N-[4-(2-ethyl-4-m-tolyl-thiazol-5-yl)-pyridin-2-yl]-sulfoximine]  5.42 µM
15. CCc1nc(-c2ccccc2)c(-c2ccnc(N=S(=O)(c3ccccc3)C(C)C)c2)s1 (stereo not drawn) [Example 22]  5.01 µM
16. CCc1nc(-c2cccc(C)c2)c(-c2ccnc(N=S(C)(=O)c3ccc(C)cc3)c2)s1 (stereo not drawn) [Example 15, S-Methyl-S-4-methylphenyl-N-[4-(2-ethyl-4-(3-methylphenyl)-1,3-thiazol-5-yl)-pyridine-2-yl]-sulfoximine]  4.9 µM
17. CCc1nc(-c2cccc(C(F)(F)F)c2)c(-c2ccnc(N=S(C)(=O)c3ccccc3)c2)s1 (stereo not drawn) [Example 54, S-Methyl-S-phenyl-N-{4-[2-ethyl-4-(3-trifluoromethylphenyl)-thiazol-5-yl]-pyridin-2-yl}sulfoximine]  4.8 µM
18. CCc1nc(-c2ccc(F)cc2)c(-c2ccnc(N=S(C)(=O)c3ccccc3)c2)s1 (stereo not drawn) [Example 39, S-Methyl-S-phenyl-N-[4-(2-ethyl-4-(4-fluoro-phenyl)-1,3-thiazol-5-yl)-pyridine-2-yl]-sulfoximine]  4.6 µM
19. CCc1nc(-c2cccc(F)c2)c(-c2ccnc(N=S(C)(=O)c3ccccc3)c2)s1 (stereo not drawn) [Example 50, S-Methyl-S-phenyl-N-[4-(2-ethyl-4-(3-fluoro-phenyl)-1,3-thiazol-5-yl)-pyridine-2-yl]-sulfoximine]  4.4 µM
20. CCc1nc(-c2ccc(F)cc2)c(-c2ccnc(N=S(C)(=O)c3ccccc3)c2)s1 (single isomer, unassigned; (-)) [Example 33, (−)-S-Methyl-S-phenyl-N-{-4-[2-ethyl-4-(4-fluoro-phenyl)-thiazol-5-yl]-pyridin-2-yl}-sulfoximine]  3.9 µM
21. CC(C)S(=O)(=Nc1cc(-c2scnc2-c2cccc(F)c2)ccn1)c1ccccc1 (stereo not drawn) [Example 72]  3.9 µM
22. CCc1nc(-c2cccc(C)c2)c(-c2ccnc(N=S(C)(=O)c3ccc(F)cc3)c2)s1 (stereo not drawn) [Example 7, S-Methyl-S-(4-fluorophenyl)-N-[4-(2-ethyl-4-(3-methylphenyl)-1,3-thiazol-5-yl)-pyridine-2-yl]-sulfoximine]  3.8 µM
23. CCc1nc(-c2ccccc2)c(-c2ccnc(N=S(C)(=O)c3ccccc3)c2)s1 (stereo not drawn) [Example 31]  3.2 µM
24. CCc1nc(-c2ccccc2)c(-c2ccnc(N=S(C)(=O)c3ccc(F)cc3)c2)s1 (stereo not drawn) [Example 27]  3.1 µM
25. CCc1nc(-c2ccccc2)c(-c2ccnc(N=S(C)(=O)c3ccccc3)c2)s1 (single isomer, unassigned; (+)) [Example 21]  2.7 µM
26. CCc1nc(-c2ccccc2)c(-c2ccnc(N=S(=O)(c3ccccc3)C3CCCC3)c2)s1 (single isomer, unassigned; (-)) [Example 29]  2.6 µM
27. CCc1nc(-c2cccc(C)c2)c(-c2ccnc(N=S(=O)(c3ccccc3)c3ccccc3)c2)s1 [Example 11, S,S-Diphenyl-N-[4-(2-ethyl-4-m-tolyl-thiazol-5-yl)-pyridin-2-yl]-sulfoximine]  2 µM
28. CCc1nc(-c2cccc3ccccc23)c(-c2ccnc(N=S(C)(=O)c3ccccc3)c2)s1 (stereo not drawn) [Example 53, S-Methyl-S-phenyl-N-{4-[2-ethyl-4-napthalene-1-yl-thiazol-5-yl]-pyridin-2-yl}-sulfoximine]  1.9 µM
29. CCc1nc(-c2cccc(C)c2)c(-c2ccnc(N=[S@@](C)(=O)c3ccccc3)c2)s1 [Example 5, (+)-(S)-methyl-S-phenyl-N-[4-(2-ethyl-4-(3-methylphenyl)-1,3-thiazol-5-yl)-pyridine-2-yl]-sulfoximine]  1.4 µM
30. CCc1nc(-c2ccc(F)cc2)c(-c2ccnc(N=S(C)(=O)c3ccc(F)cc3)c2)s1 (stereo not drawn) [Example 41, S-Methyl-S-4-fluoro-phenyl-N-[4-(2-ethyl-4-(4-fluoro-phenyl)-1,3-thiazol-5-yl)-pyridine-2-yl]-sulfoximine]  1.4 µM
31. CCc1nc(-c2ccc(F)cc2)c(-c2ccnc(N=S(=O)(c3ccccc3)c3ccccc3)c2)s1 [Example 45, S,S-Diphenyl-N-[4-(2-ethyl-4-(4-fluorophenyl)-thiazol-5-yl)-pyridin-2-yl]-sulfoximine]  1.35 µM
32. CCc1nc(-c2cccc(C)c2)c(-c2ccnc(N=S(=O)(c3ccccc3)C(C)C)c2)s1 (stereo not drawn) [Example 13, S-Isopropyl-S-phenyl-N-[4-(2-ethyl-4-(3-methylphenyl)-1,3-thiazol-5-yl)-pyridine-2-yl]-sulfoximine]  1.3 µM
33. CCc1nc(-c2cccc(C)c2)c(-c2ccnc(N=S(=O)(C3CCCCC3)C3CCCCC3)c2)s1 [Example 2, S,S-dicyclohexyl-N-[4-(2-ethyl-4-m-tolyl-thiazol-5-yl)-pyridine-2-yl]sulfoximine]  1.2 µM
34. CCc1nc(-c2cccc(C)c2)c(-c2ccnc(N=S(C)(=O)c3ccc(OC)cc3)c2)s1 (stereo not drawn) [Example 3, S-Methyl-S-4-methoxyphenyl-N-[4-(2-ethyl-4-m-tolyl-thiazol-5-yl)-pyridine-2-yl]-sulfoximine]  1.1 µM
35. CCc1nc(-c2ccc(F)c(F)c2)c(-c2ccnc(N=S(C)(=O)c3ccccc3)c2)s1 (stereo not drawn) [Example 58, S-Methyl-S-phenyl-N-{4-[2-ethyl-4-(3,4-difluorophenyl)-thiazol-5-yl]pyridin-2-yl}-sulfoximine]  1 µM
36. CCc1nc(-c2ccccc2)c(-c2ccnc(N=S(C)(=O)c3ccccc3)c2)s1 (single isomer, unassigned; (-)) [Example 20]  0.8 µM
37. CCc1nc(-c2cccc(C)c2)c(-c2ccnc(N=S(=O)(c3ccccc3)C3CCCC3)c2)s1 (stereo not drawn) [Example 1, S-Cyclopentyl-S-phenyl-N-[4-(2-ethyl-4-(3-methylphenyl)-1,3-thiazol-5-yl)-pyridine-2-yl]-sulfoximine]  0.78 µM
38. CCc1nc(-c2ccccc2)c(-c2ccnc(N=S(=O)(c3ccccc3)C3CCCC3)c2)s1 (stereo not drawn) [Example 28, S-Cyclopentyl-S-phenyl-N-[4-{2-ethyl-4-phenyl-thiazol-5-yl}-pyridine]-sulfoximine]  0.46 µM
39. CCc1nc(-c2cccc(C)c2)c(-c2ccnc(N=S(C)(=O)c3ccccc3)c2)s1 (single isomer, unassigned; (-)) [Example 6, (−)-S-methyl-S-phenyl-N-[4-(2-ethyl-4-(3-methylphenyl)-1,3-thiazol-5-yl)-pyridine-2-yl]-sulfoximine]  0.15 µM
